{"source": "patent US20120149101A1", "about": "“METHODS AND KITS FOR REGULATING INTRACELLULAR TRAFFICKING OF A TARGET PROTEIN” (INSTITUT CURIE, priority 2009, published 2012)", "key": {"[1]": {"molecular_target": "T1, interaction between SBP-Tag and Streptavidin (Streptomyces avidinii, UniProt P22629, L133T/T100R/V149R/V79T)", "T1 construct": "expressed in transfected cells; host or cells: HeLa cells, transient transfection of the hook-IRES-reporter plasmid", "T1 sequence (P22629 25-183 V79T/T100R/L133T/V149R limits assumed)": "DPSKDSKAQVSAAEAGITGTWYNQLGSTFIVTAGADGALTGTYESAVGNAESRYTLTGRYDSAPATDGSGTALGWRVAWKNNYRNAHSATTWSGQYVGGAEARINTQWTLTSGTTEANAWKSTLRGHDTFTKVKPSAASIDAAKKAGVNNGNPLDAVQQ", "experiment": "RUSH^L[ID]: release of SBP-tagged reporters from the hook Ii-Core streptavidin, by immunofluorescence and time-lapse imaging", "format": "cell-based, human", "description": "The Reporter ST-SBP-GFP is retained in the ER in cells expressing the hook Ii-Core streptavidin. Biotin is added at time 00:00 (min sec) and the release of the reporter is followed by time-lapse fluorescent imaging using a spinning disk equipped confocal microscope at 37° C. The Reporter starts to be visible in the Golgi apparatus in a very short time (9:30) and labels massively the Golgi apparatus by 30 minutes.\nThe Reporter SBP-GFP-Ecadherin is retained in the ER in cells expressing the hook Ii-Core streptavidin. Biotin is added at time 00:00 (min:sec) and the release of the reporter is followed by time-lapse fluorescent imaging using a spinning disk equipped confocal microscope at 37° C. The Reporter is visualized using GFP as a detection domain. Significant quantities of the reporter are visible in the Golgi apparatus from 03:30 and continue to increase. The reporter starts to be visible at the plasma membrane around 30:00. Note that transport intermediates (in the form of punctuate staining) are visible at early (ER to Golgi) and late (Golgi to plasma membrane) time points.\n(§1) Hela cells were grown at 37° C. in DMEM (Invitrogen) supplemented with L-glutamine, Sodium Pyruvate and 10% Fetal Calf Serum. For transient transfection, cells were plated on coverslips in 150-mm culture dishes and transfected with 25 μg of the plasmid hook-IRES-reporter using the calcium phosphate precipitation method, in presence of 25 mM HEPES. After 4 hours, cells were washed out with fresh medium and incubated overnight in presence of 3.1 nM Rapamycin (Sigma). Then cells were washed out 3 times with medium, and incubated in prewarmed medium with 3.3 μM FK506 (Cayman) and […] cycloheximide (CHX) for several time points. For each time point, 1 mL of medium containing FK506 and CHX was added into a well of a 12-well plate. Then cells were fixed with 4% PAF and processed for fluorescent microscopy. In the streptavidin/SBP set-up, transfection is done similarly but no addition is done when washing the cells after transfection. After 1-hours, biotin (10 μM) is added to induce reporter release. Then cells are then processed as in the MD set-up.\nCells were fixed in paraformaldehyde 3% for 15 min, washed in PBS (Phosphate Buffer Saline) and free aldehydes were quenched in NH4Cl 50 mM for 5 min. Cells were then permeabilized in PBS containing Bovine Serum Albumine (BSA 0.5%) and Saponine (Sapo 0.05%) [PBS/BSA/Sapo] for 20 min and incubated with primary antibodies (human anti-Giantin, Nizak et al. 2003, Moutel et al., 2009) in the same buffer for 30 min Cells were washed in PBS and incubated in PBS/BSA/Sapo with fluorescently labelled secondary antibodies (Jackson Immunoresearch) for 20 min Nuclei were counter-stained with DAPI (4′,6-Diamidino-2-phenylindole, Sigma-Aldrich). Cells were finally washed in PBS before being mounted in Mowiol (Sigma-Aldrich) and observed by fluorescent microscopy.\nA hook was constructed using the ER localized Ii33 fused to monomeric Streptavidin (SEQ ID NO:3) (FRAP of the construct from Example 1 is replaced by monomeric Streptavidin). The reporter was the Golgi localization domain of Sialyl Transferase as used in Example 1. The Hook and reporter were co-expressed in cells and the two domains, streptavidin and SBP-tag interact by default, preventing ST transport to the Golgi apparatus. Release of ST was achieved using moderate concentration of free biotin (around 1-10 μM)."}, "[2]": {"molecular_target": "T2, interaction between SBP and core streptavidin (Streptomyces avidinii, UniProt P22629)", "T2 construct": "the FRAP domain is replaced by Core streptavidin which was amplified by PCR; expressed in transfected cells; host or cells: HeLa cells, transient transfection of the hook-IRES-reporter plasmid", "T2 sequence (P22629 with tags, fused parts or gaps)": "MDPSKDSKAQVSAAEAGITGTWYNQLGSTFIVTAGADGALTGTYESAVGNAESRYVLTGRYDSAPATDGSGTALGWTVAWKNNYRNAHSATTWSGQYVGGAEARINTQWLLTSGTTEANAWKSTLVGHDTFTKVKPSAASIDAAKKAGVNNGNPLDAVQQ", "experiment": "RUSH^C[ID]: release of the reporter TMD22 from the hook TMD17-streptavidin", "format": "cell-based, human", "settings": "upon biotin addition; cytoplasmic topology", "description": "as §1\nCells were fixed in paraformaldehyde 3% for 15 min, washed in PBS (Phosphate Buffer Saline) and free aldehydes were quenched in NH4Cl 50 mM for 5 min. […]"}, "[3]": {"settings": "upon biotin addition, surface anti-GFP"}}, "data": [{"compound": "O=C(O)CCCC[C@@H]1SC[C@@H]2NC(=O)N[C@@H]21", "note": "[Biotin, D-Biotin]", "values": [{"measurement": "time by which reporter labels massively the Golgi apparatus", "setting": "[1]; reporter ST-SBP-GFP, biotin added at 00:00, 37° C.", "result": "≤ 30", "unit": "min"}, {"measurement": "concentration of free biotin achieving release of ST", "setting": "[1]; reporter ST, hook Ii33-Streptavidin", "result": "1 to 10", "unit": "µM"}, {"measurement": "release of reporters ST-SBP-GFP and ManII-SBP-mCherry to the Golgi apparatus", "setting": "[1]; upon addition of biotin", "result": "they both reach the Golgi apparatus"}, {"measurement": "release of reporter SBP-GFP-Ecadherin to the plasma membrane", "setting": "[1]; [3]", "result": "the reporter is released and reaches its target plasma membrane compartment"}, {"measurement": "release of reporter SBP-GFP-VSV-G to the plasma membrane", "setting": "[1]; [3]", "result": "the reporter is released and reaches its target plasma membrane compartment"}, {"measurement": "release of reporter TMD22 toward the plasma membrane", "setting": "[2]", "result": "release was observed"}]}]}
